Assay: The drug is tested on Bacteroides caccae strain: ATCC43185 for biotransformation. The drug concentrations were measured before and after a 12-h incubation by liquid-chromatography-coupled mass spectrometry (LC–MS)
Settings: 2 µM

Compound | Bacterial Biotransformation
CC12CC3CC(C)(C1)CC(N)(C3)C2 [MEMANTINE] | Compound NOT metabolized
O=C(NC(Cc1cc(=O)[nH]c2ccccc12)C(=O)O)c1ccc(Cl)cc1 (centres undefined) [REBAMIPIDE] | Compound NOT metabolized

Assay: The drug is tested on Bacteroides fragilis strain: HMW610 for biotransformation. The drug concentrations were measured before and after a 12-h incubation by liquid-chromatography-coupled mass spectrometry (LC–MS)
Settings: 2 µM

Compound | Bacterial Biotransformation
CC12CC3CC(C)(C1)CC(N)(C3)C2 [MEMANTINE] | Compound NOT metabolized
O=C(NC(Cc1cc(=O)[nH]c2ccccc12)C(=O)O)c1ccc(Cl)cc1 (centres undefined) [REBAMIPIDE] | Compound metabolized

Assay: The drug is tested on Bacteroides fragilis strain: HMW615 for biotransformation. The drug concentrations were measured before and after a 12-h incubation by liquid-chromatography-coupled mass spectrometry (LC–MS)
Settings: 2 µM

Compound | Bacterial Biotransformation
CC12CC3CC(C)(C1)CC(N)(C3)C2 [MEMANTINE] | Compound NOT metabolized
O=C(NC(Cc1cc(=O)[nH]c2ccccc12)C(=O)O)c1ccc(Cl)cc1 (centres undefined) [REBAMIPIDE] | Compound metabolized

Assay: The drug is tested on Bacteroides pectinophilus strain: ATCC43243 for biotransformation. The drug concentrations were measured before and after a 12-h incubation by liquid-chromatography-coupled mass spectrometry (LC–MS)
Settings: 2 µM

Compound | Bacterial Biotransformation
CC12CC3CC(C)(C1)CC(N)(C3)C2 [MEMANTINE] | Compound NOT metabolized
O=C(NC(Cc1cc(=O)[nH]c2ccccc12)C(=O)O)c1ccc(Cl)cc1 (centres undefined) [REBAMIPIDE] | Compound NOT metabolized

Assay: The drug is tested on Odoribacter splanchnicus strain: fecal isolate for biotransformation. The drug concentrations were measured before and after a 12-h incubation by liquid-chromatography-coupled mass spectrometry (LC–MS)
Settings: 2 µM

Compound | Bacterial Biotransformation
CC12CC3CC(C)(C1)CC(N)(C3)C2 [MEMANTINE] | Compound NOT metabolized
O=C(NC(Cc1cc(=O)[nH]c2ccccc12)C(=O)O)c1ccc(Cl)cc1 (centres undefined) [REBAMIPIDE] | Compound NOT metabolized

Assay: The drug is tested on Parabacteroides merdae strain: ATCC43184 for biotransformation. The drug concentrations were measured before and after a 12-h incubation by liquid-chromatography-coupled mass spectrometry (LC–MS)
Settings: 2 µM

Compound | Bacterial Biotransformation
CC12CC3CC(C)(C1)CC(N)(C3)C2 [MEMANTINE] | Compound NOT metabolized
O=C(NC(Cc1cc(=O)[nH]c2ccccc12)C(=O)O)c1ccc(Cl)cc1 (centres undefined) [REBAMIPIDE] | Compound NOT metabolized

Assay: The drug is tested on Anaerococcus hydrogenalis strain: DSM7454 for biotransformation. The drug concentrations were measured before and after a 12-h incubation by liquid-chromatography-coupled mass spectrometry (LC–MS)
Settings: 2 µM

Compound | Bacterial Biotransformation
CC12CC3CC(C)(C1)CC(N)(C3)C2 [MEMANTINE] | Compound NOT metabolized
O=C(NC(Cc1cc(=O)[nH]c2ccccc12)C(=O)O)c1ccc(Cl)cc1 (centres undefined) [REBAMIPIDE] | Compound NOT metabolized

Assay: The drug is tested on Blautia luti strain: DSM14534 for biotransformation. The drug concentrations were measured before and after a 12-h incubation by liquid-chromatography-coupled mass spectrometry (LC–MS)
Assay type: ADME
Parameters: dose 2 uM, timepoint 0 vs 12 hours
Settings: 2 µM

Compound | Bacterial Biotransformation
CC12CC3CC(C)(C1)CC(N)(C3)C2 [MEMANTINE] | Compound NOT metabolized
O=C(NC(Cc1cc(=O)[nH]c2ccccc12)C(=O)O)c1ccc(Cl)cc1 (centres undefined) [REBAMIPIDE] | Compound NOT metabolized

Assay: The drug is tested on Clostridium sp. strain: fecal isolate for biotransformation. The drug concentrations were measured before and after a 12-h incubation by liquid-chromatography-coupled mass spectrometry (LC–MS)
Settings: 2 µM

Compound | Bacterial Biotransformation
CC12CC3CC(C)(C1)CC(N)(C3)C2 [MEMANTINE] | Compound NOT metabolized
O=C(NC(Cc1cc(=O)[nH]c2ccccc12)C(=O)O)c1ccc(Cl)cc1 (centres undefined) [REBAMIPIDE] | Compound NOT metabolized

Assay: The drug is tested on Clostridium ramosum strain: DSM1402 for biotransformation. The drug concentrations were measured before and after a 12-h incubation by liquid-chromatography-coupled mass spectrometry (LC–MS)
Settings: thomasclavelia ramosa, 2 µM

Compound | Bacterial Biotransformation
CC12CC3CC(C)(C1)CC(N)(C3)C2 [MEMANTINE] | Compound NOT metabolized
O=C(NC(Cc1cc(=O)[nH]c2ccccc12)C(=O)O)c1ccc(Cl)cc1 (centres undefined) [REBAMIPIDE] | Compound NOT metabolized

Assay: The drug is tested on Eubacterium rectale strain: ATCC33656 for biotransformation. The drug concentrations were measured before and after a 12-h incubation by liquid-chromatography-coupled mass spectrometry (LC–MS)
Settings: agathobacter rectalis, 2 µM

Compound | Bacterial Biotransformation
O=C(NC(Cc1cc(=O)[nH]c2ccccc12)C(=O)O)c1ccc(Cl)cc1 (centres undefined) [REBAMIPIDE] | Compound NOT metabolized

Assay: The drug is tested on Ruminococcus lactaris strain: ATCC29176 for biotransformation. The drug concentrations were measured before and after a 12-h incubation by liquid-chromatography-coupled mass spectrometry (LC–MS)
Settings: 2 µM

Compound | Bacterial Biotransformation
O=C(NC(Cc1cc(=O)[nH]c2ccccc12)C(=O)O)c1ccc(Cl)cc1 (centres undefined) [REBAMIPIDE] | Compound NOT metabolized

Assay: The drug is tested on Edwardsiella tarda strain: ATCC23685 for biotransformation. The drug concentrations were measured before and after a 12-h incubation by liquid-chromatography-coupled mass spectrometry (LC–MS)
Settings: 2 µM

Compound | Bacterial Biotransformation
CC12CC3CC(C)(C1)CC(N)(C3)C2 [MEMANTINE] | Compound NOT metabolized
O=C(NC(Cc1cc(=O)[nH]c2ccccc12)C(=O)O)c1ccc(Cl)cc1 (centres undefined) [REBAMIPIDE] | Compound NOT metabolized

Assay: The drug is tested on Providencia stuartii strain: ATCC25827 for biotransformation. The drug concentrations were measured before and after a 12-h incubation by liquid-chromatography-coupled mass spectrometry (LC–MS)
Settings: 2 µM

Compound | Bacterial Biotransformation
CC12CC3CC(C)(C1)CC(N)(C3)C2 [MEMANTINE] | Compound NOT metabolized
O=C(NC(Cc1cc(=O)[nH]c2ccccc12)C(=O)O)c1ccc(Cl)cc1 (centres undefined) [REBAMIPIDE] | Compound NOT metabolized

Settings: bacteroides fragilis, 12 h, 2 µM
Description: The drug is tested on Bacteroides fragilis strain: 3397 (T10) for biotransformation. The drug concentrations were measured before and after a 12-h incubation by liquid-chromatography-coupled mass spectrometry (LC–MS)

Compound | Bacterial Biotransformation
CC12CC3CC(C)(C1)CC(N)(C3)C2 [MEMANTINE] | Compound NOT metabolized
O=C(NC(Cc1cc(=O)[nH]c2ccccc12)C(=O)O)c1ccc(Cl)cc1 (centres undefined) [REBAMIPIDE] | Compound NOT metabolized

Settings: bacteroides fragilis, 12 h, 2 µM
Remark: another data set of the same source
Description: The drug is tested on Bacteroides fragilis strain: DS-208 for biotransformation. The drug concentrations were measured before and after a 12-h incubation by liquid-chromatography-coupled mass spectrometry (LC–MS)

Compound | Bacterial Biotransformation
CC12CC3CC(C)(C1)CC(N)(C3)C2 [MEMANTINE] | Compound NOT metabolized

Settings: bacteroides thetaiotaomicron, 12 h, 2 µM
Description: The drug is tested on Bacteroides thetaiotaomicron strain: 3731 for biotransformation. The drug concentrations were measured before and after a 12-h incubation by liquid-chromatography-coupled mass spectrometry (LC–MS)

Compound | Bacterial Biotransformation
CC12CC3CC(C)(C1)CC(N)(C3)C2 [MEMANTINE] | Compound NOT metabolized
O=C(NC(Cc1cc(=O)[nH]c2ccccc12)C(=O)O)c1ccc(Cl)cc1 (centres undefined) [REBAMIPIDE] | Compound NOT metabolized

Settings: parabacteroides johnsonii, 12 h, 2 µM
Description: The drug is tested on Parabacteroides johnsonii strain: DSM18315 for biotransformation. The drug concentrations were measured before and after a 12-h incubation by liquid-chromatography-coupled mass spectrometry (LC–MS)

Compound | Bacterial Biotransformation
CC12CC3CC(C)(C1)CC(N)(C3)C2 [MEMANTINE] | Compound NOT metabolized
O=C(NC(Cc1cc(=O)[nH]c2ccccc12)C(=O)O)c1ccc(Cl)cc1 (centres undefined) [REBAMIPIDE] | Compound NOT metabolized

Settings: roseburia intestinalis, 12 h, 2 µM
Description: The drug is tested on Roseburia intestinalis strain: L1-82 for biotransformation. The drug concentrations were measured before and after a 12-h incubation by liquid-chromatography-coupled mass spectrometry (LC–MS)

Compound | Bacterial Biotransformation
O=C(NC(Cc1cc(=O)[nH]c2ccccc12)C(=O)O)c1ccc(Cl)cc1 (centres undefined) [REBAMIPIDE] | Compound NOT metabolized
